Results published in EP4471048A1, “PEPTIDE INHIBITORS OF INTERLEUKIN-23 RECEPTOR” (Zealand Pharma A/S, priority 2023, dated 2024).
Read-outs that look alike come from different tables or passages of the source. *1 amine or outer side, *2 acyl side, *3 side chain or, on linkers, in order; H or OH if unused. Where a SMILES comes first, the peptide text is derived from it. Bridges are numbered along the chain shown (N, C = ends). [ ]: non-standard residue; d: D form. 2Nal = N[C@@H](Cc1ccc2ccccc2c1)C(=O)O; AEF = NCCOc1ccc(C[C@H](N)C(=O)O)cc1; X1 = O=C(Cc1ccc(CN[*:1])cc1)[*:2]; 3Pal = N[C@@H](Cc1cccnc1)C(=O)O; αMeL = CC(C)C[C@](C)(N)C(=O)O; CH2COCH2 = O=C(C[*:1])C[*:2]; 3Amb = NCc1cccc(C(=O)O)c1; Dab = NCC[C@H](N)C(=O)O

Key:
[1] = molecular target: T1, human IL-23R (Homo sapiens, UniProt Q5VWK5); assay: biochemical
T1 sequence (Q5VWK5 22-629): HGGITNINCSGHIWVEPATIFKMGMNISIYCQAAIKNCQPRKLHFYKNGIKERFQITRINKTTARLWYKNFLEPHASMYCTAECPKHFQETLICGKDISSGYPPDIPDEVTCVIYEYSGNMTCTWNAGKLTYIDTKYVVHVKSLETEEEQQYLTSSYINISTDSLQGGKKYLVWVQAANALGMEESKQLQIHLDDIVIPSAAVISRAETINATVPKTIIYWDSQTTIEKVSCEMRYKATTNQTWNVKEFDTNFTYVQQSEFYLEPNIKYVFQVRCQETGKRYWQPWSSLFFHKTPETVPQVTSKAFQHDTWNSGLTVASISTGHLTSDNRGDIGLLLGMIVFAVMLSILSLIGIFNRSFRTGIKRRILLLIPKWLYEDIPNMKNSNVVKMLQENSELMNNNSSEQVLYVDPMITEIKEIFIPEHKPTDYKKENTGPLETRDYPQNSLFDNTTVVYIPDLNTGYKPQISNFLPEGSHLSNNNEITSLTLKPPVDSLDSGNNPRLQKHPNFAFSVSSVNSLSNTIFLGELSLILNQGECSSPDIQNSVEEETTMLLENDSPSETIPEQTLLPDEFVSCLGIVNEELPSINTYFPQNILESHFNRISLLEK
Procedure, shortened: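 BRET displacement of a TAMRA-labelled reference compound from N-terminal Nanoluc-IL-23R fusion protein in membranes from stably transfected HEK293 cells. Incubation 2 h at room temperature, then Nanoluc substrate was added and the TAMRA/Nanoluc ratio read. IC50 and maximal displacement came from 4-parameter logistic fits.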

[2] = molecular target: IL-23 mediated signalling (Homo sapiens, UniProt Q5VWK5); assay: Functional inhibition of IL-23 mediated STAT3 signalling (phospho-STAT3 MSD) in DB cells; type: cell-based; settings: for Emax: read-out: hIL-23 (pSTAT3) antagonist % inhibition
Procedure, shortened: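 DB cells preincubated with inhibitor 15 min at 37 °C, then stimulated 90 min with EC80 human IL-23; lysate phospho-STAT3 measured by MSD electrochemiluminescence. Signal normalized to IL-23-alone and buffer controls; IC50 and maximal % inhibition from 4-parameter logistic fit.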

[3] = Peptide stability in simulated intestinal fluid (SIF); type: in vitro ADME; settings: 37 °C, porcine pancreatin; for SIF (% remaining 1 h) / remaining at 1 h, 10 µM: pH 6.8, 1 h; for remaining at 1 h, 10 µM / remaining at 4 h, 10 µM: pig
Procedure, shortened: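 Peptides were incubated at 37 °C with gentle shaking in pH 6.8 potassium phosphate SIF containing porcine pancreatin (10 g/L). Supernatants were analysed by LC-HRMS. Percent remaining at each timepoint, including 4 h, was calculated relative to time zero from absolute peak areas.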

[4] = Peptide stability in simulated gastric fluid (SGF); type: in vitro ADME; settings: for remaining at 1 h, 10 µM / remaining at 4 h, 10 µM: pig
Procedure, shortened: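 Peptide incubated at 37 °C with gentle shaking in SGF (NaCl, pH 1.2). Samples centrifuged, diluted and analysed by LC-HRMS; percent remaining at each timepoint from absolute peak areas relative to time zero, with 4 h as the reference point.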

[5] = Table 3-2, DB cells, hIL-23 at EC80, read-out: hIL-23 (pSTAT3) antagonist IC50
[6] = Table 3-2, maximal inhibitory response, DB cells, hIL-23 at EC80
[7] = 10 µM, 37 °C, porcine pepsin, pH 1.2, 1 h
[8] = 10 µM, 37 °C, porcine pepsin, pH 1.2, 4 h
[9] = SAR tables 2-1 to 2-7, DB cells, hIL-23 at EC80, read-out: IC50 (pSTAT3)
[10] = SAR tables, % peptide remaining, pH 6.8, 4 h, read-out: SIF (% after 4 h)
[11] = simulated gastric fluid (SGF) with porcine pepsin (3.2 g/L), pH 1.2, 10 µM, 37 °C, porcine pepsin, pH 1.2, 1 h, read-out: SGF (% remaining 1 h)
[12] = simulated gastric fluid (SGF) with porcine pepsin (3.2 g/L), pH 1.2, 10 µM, 37 °C, porcine pepsin, pH 1.2, 4 h, read-out: SGF (% remaining 4 h)
[13] = pH 6.8, 4 h, read-out: SIF (% remaining 4 h)

SMILES	IC50 [1]	Ki [1]	IC50 [2, 5]	Emax [2, 6]	SIF (% remaining 4 h) ([3]; 10 µM, pH 6.8, 4 h)	% displacement (hIL-23R NIuc) [1]	remaining at 1 h, 10 µM [3]	remaining at 4 h, 10 µM [3, 10]	remaining at 1 h, 10 µM [4, 11]	remaining at 4 h, 10 µM [4, 12]	remaining at 4 h, 10 µM [3, 13]	other results
CSCC[C@H](NC(=O)[C@@H]1CSCC(=O)CSC[C@H](NC(=O)[C@@H](N)CCC(=O)O)C(=O)N[C@@H](Cc2c[nH]c3ccccc23)C(=O)N[C@@H](CC(C)C)C(=O)N[C@H]2CSCC(=O)CSC[C@H](NC(=O)[C@H](CC(N)=O)NC(=O)[C@H](CCCNC(=N)N)NC(=O)[C@H](Cc3ccc(O)cc3)NC(=O)[C@H](Cc3ccc(O)cc3)NC2=O)C(=O)N[C@@H](CC(N)=O)C(=O)N1)C(N)=O (single isomer, unassigned) [I4 (isomer 3), H-EC(4a)WLC(5a)YYRNC(5a)NC(4a)M-[NH2], reference compound]	> 1000 nM	> 1000 nM	> 1000 nM	23%	0%	–	–	–	–	–	–	SIF (% remaining 1 h) ([3]; 10 µM): 0%; SGF (% remaining 1 h) [4, 7]: 99%; SGF (% remaining 4 h) [4, 8]: 99%
CNC(=O)[C@H](Cc1cccnc1)NC(=O)[C@H](CCN)NC(=O)[C@@H]1CCC(=O)NCCCC[C@@H]2NC(=O)CC[C@H](NC(=O)[C@H](CCC(N)=O)NC(=O)[C@H](Cc3c[nH]c4ccccc34)NC(=O)CNC2=O)C(=O)N[C@@H](Cc2ccc(OCCN)cc2)C(=O)N[C@@H](Cc2ccc3ccccc3c2)C(=O)N[C@@](C)(CC(C)C)C(=O)N1 [Compound 44, K(1c)(6c)^†GWQE(6c)[Y(2-aminoethoxy)][2-Nal][2-Me-Leu]E(1c)[Dab][3-(3-Pyridyl)-Ala]-[NHMe]]	4 nM	–	–	100%	5%	100%	77%	5%	100%	101%	–	IC50 [2, 9]: 15 nM
CC(C)C[C@]1(C)NC(=O)[C@H](Cc2ccc3ccccc3c2)NC(=O)[C@H](Cc2ccc(OCCN)cc2)NC(=O)[C@@H]2CSCC(=O)CSC[C@H](NC(=O)[C@H](CO)NC(=O)c3cccc(c3)CNC(=O)CC[C@@H](C(=O)N[C@H](CCCNC(=N)N)C(N)=O)NC1=O)C(=O)N[C@@H](Cc1c[nH]c3ccccc13)C(=O)N[C@@H](CCC(N)=O)C(=O)N2 [Ref 41, [(3-Aminomethyl)benzoyl](1c)*SC(2a)WQC(2a)[Y(2-aminoethoxy)][2-Nal][2-Me-Leu]E(1c)[{d}R]-[NH2], reference compound] ([3Amb]SCWQC[AEF][2Nal][αMeL]E[dR]-NH2; linker 3-6 via CH2COCH2; lactam N-10)	2.8 nM	2.31 nM	29 nM	99%	–	110%	83%	–	93%	87%	79%	–
CNC(=O)[C@H](Cc1cccnc1)NC(=O)[C@H](CCN)NC(=O)[C@@H]1CCC(=O)NCCCC[C@@H]2NC(=O)CC[C@H](NC(=O)[C@H](CCC(N)=O)NC(=O)[C@H](Cc3c[nH]c4ccccc34)NC(=O)CCNC2=O)C(=O)N[C@@H](Cc2ccc(OCCN)cc2)C(=O)N[C@@H](Cc2ccc3ccccc3c2)C(=O)N[C@@](C)(CC(C)C)C(=O)N1 [Compound 45, K(1c)(6c)^†[3-Aminopropanoyl]WQE(6c)[Y(2-aminoethoxy)][2-Nal][2-Me-Leu]E(1c)[Dab][3-(3-Pyridyl)-Ala]-[NHMe]]	0.022 nM	–	–	100%	87%	100%	90%	87%	98%	103%	–	IC50 [2, 9]: 0.058 nM
CC(=O)N[C@@H](CC(=O)O)C(=O)N[C@H]1CCC(=O)NCCCC[C@@H](C(=O)N[C@@H](CCCNC(=N)N)C(N)=O)NC(=O)[C@H](CC(C)C)NC(=O)[C@H](Cc2ccc3ccccc3c2)NC(=O)[C@H](Cc2c[nH]c3ccccc23)NC(=O)[C@@H]2CSCC(=O)CSC[C@H](NC(=O)[C@H](CO)NC1=O)C(=O)N[C@@H](Cc1c[nH]c3ccccc13)C(=O)N[C@@H](CCC(N)=O)C(=O)N2 [Ref 17, [Ac]-DE(1c)SC(2a)WQC(2a)W[2-Nal]LK(1c)R-[NH2], reference compound]	87 nM	70.7 nM	370 nM	–	–	–	0%	–	0%	0%	0%	–
CC[C@H](C)[C@@H]1NC(=O)[C@@H]2CCCCNC(=O)CC[C@@H](C(=O)N[C@@H](CCN)C(=O)N[C@@H](Cc3cccnc3)C(=O)NC)NC(=O)[C@](C)(CC(C)C)NC(=O)[C@H](Cc3ccc4ccccc4c3)NC(=O)[C@H](Cc3ccc(OCCN)cc3)NC(=O)[C@H](CCC(=O)N2)NC(=O)[C@H](CCC(N)=O)NC(=O)[C@H](Cc2c[nH]c3ccccc23)NC(=O)[C@H](C(C)C)NC1=O [Compound 60, K(1c)(6c)^†IVWQE(6c)[Y(2-aminoethoxy)][2-Nal][2-Me-Leu]E(1c)[Dab][3-(3-Pyridyl)-Ala]-[NHMe]]	0.049 nM	–	–	101%	71%	95%	76%	71%	120%	–	–	SIF (% after 4 h) ([3]; SAR tables, % peptide remaining, 10 µM, pH 6.8, 4 h): 71%; SGF (% after 4 h) ([4]; SAR tables, % peptide remaining, 10 µM, 37 °C, porcine pepsin, pH 1.2, 4 h): 109%; remaining at 4 h, 10 µM ([4]; simulated gastric fluid (SGF) with porcine pepsin (3.2 g/L), pH 1.2, SAR tables, % peptide remaining, 10 µM, 37 °C, porcine pepsin, pH 1.2, 4 h, read-out: SGF (% after 4 h)): 109%
CC(C)C[C@@H]1NC(=O)[C@H](Cc2c[nH]c3ccccc23)NC(=O)[C@H](Cc2c[nH]c3ccccc23)NC(=O)[C@@H]2CSCC(=O)CSC[C@H](NC(=O)[C@H]([C@@H](C)O)NC(=O)[C@@H](NC(=O)CN)CSCC(=O)CSC[C@@H](C(=O)N[C@@H](CO)C(N)=O)NC1=O)C(=O)N[C@@H](Cc1c[nH]c3ccccc13)C(=O)N[C@@H](CCC(=O)O)C(=O)N2 (single isomer, unassigned) [I1 (isomer 3), H-GC(1a)TC(2a)WEC(2a)WWLC(1a)S-[NH2], reference compound]	130 nM	104 nM	–	–	0%	–	–	–	–	–	–	IC50 [2]: > 1000 nM; Emax ([2]; DB): 83%; SIF (% remaining 1 h) ([3]; 10 µM): 0%; SGF (% remaining 1 h) [4, 7]: 92%; SGF (% remaining 4 h) [4, 8]: 94%
CC(C)C[C@]1(C)NC(=O)[C@H](Cc2ccc3ccccc3c2)NC(=O)[C@H](Cc2ccc(OCCN)cc2)NC(=O)[C@@H]2CSCC(=O)CSC[C@H](NC(=O)[C@H](CO)NC(=O)Cc3ccc(cc3)CNC(=O)CC[C@@H](C(=O)N[C@@H](CCN)C(=O)N[C@@H](Cc3cccnc3)C(N)=O)NC1=O)C(=O)N[C@@H](Cc1c[nH]c3ccccc13)C(=O)N[C@@H](CCC(N)=O)C(=O)N2 [Ref 120, [4-Aminomethyl-phenylacetyl](1c)*SC(2a)WQC(2a)[Y(2-aminoethoxy)][2-Nal][2-Me-Leu]E(1c)[Dab][3-(3-Pyridyl)-Ala]-[NH2], reference compound] ([X1]SCWQC[AEF][2Nal][αMeL]E[Dab][3Pal]-NH2; linker 3-6 via CH2COCH2; lactam N-10)	0.011 nM	0.00938 nM	–	101%	–	94%	82%	–	–	–	39%	IC50 [2]: 0.054 nM; remaining at 1 h, 10 µM ([4]; simulated gastric fluid, pH 1.2, SGF (% remaining 1 h)): 84%; remaining at 4 h, 10 µM ([4]; simulated gastric fluid, pH 1.2, SGF (% remaining 4 h)): 81%
